This note sets out measurements from article PMC2763079 (Molecular Imaging and Biology, 2009).

The target in data set [1] is T1, TSPO (Rattus norvegicus, UniProt P16257). Put plainly: ex vivo biodistribution after PET scan. Format: in vivo. The settings on record: 60 min after tracer injection.
Data set [2] deals with T1, TSPO. Description: correlation of specific binding in control rats with [^3H]-PK11195 binding. The format is in vivo.

T1 sequence (P16257 whole entry): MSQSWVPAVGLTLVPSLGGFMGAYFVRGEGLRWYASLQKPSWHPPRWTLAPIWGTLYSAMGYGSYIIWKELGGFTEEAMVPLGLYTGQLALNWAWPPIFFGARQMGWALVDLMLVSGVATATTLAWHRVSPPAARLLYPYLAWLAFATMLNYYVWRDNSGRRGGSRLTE

As to `CC[C@@H](C)N(C)C(=O)c1cc2ccccc2c(-c2ccccc2Cl)n1` [[^11C]-(R)-PK11195, (R)-N-methyl-N-(1-methylpropyl)-1-(2-chlorophenyl)isoquinoline-3-carboxamide], at TSPO [1] (HSE rats), the “Ex vivo biodistribution SUV, bulbus olfactorius” value is listed as 1.59 SUV; the “Ex vivo biodistribution SUV, cerebellum” value worked out at 0.88 SUV; the “Ex vivo biodistribution SUV, medulla” value is on record as 1.29 SUV; the “Ex vivo biodistribution SUV, pons” value worked out at 1.54 SUV. On TSPO [1] (control rats), the “Ex vivo biodistribution SUV, bulbus olfactorius” value was 1.20 SUV; the “Ex vivo biodistribution SUV, cerebellum” value stood at 0.51 SUV; the “Ex vivo biodistribution SUV, medulla” value amounted to 0.61 SUV; the “Ex vivo biodistribution SUV, pons” value was determined as 0.59 SUV. The “R, correlation of specific binding in control rats with [^3H]-PK11195 binding” value at TSPO [2] (Pearson correlation, [^3H]-PK11195 binding from Kurumaji et al. [25]) was found to be 0.96. The “slope of the linear regression of specific binding vs [^3H]-PK11195 binding” value at TSPO [2] (control rats) came to 0.010.
